Source: ChEMBL document CHEMBL5321280, “Novel 4-Arylindolines Containing a Pyrido[3,2-d]pyrimidine Moiety as the Programmed Cell Death-1/Programmed Cell Death-Ligand 1 Interaction Inhibitors for Tumor Immunotherapy” (J Med Chem, 2023)
Active and inactive are the calls of the source. No cut-off for these calls is given here.

What was measured:
[1] = Toxicity in C57 mouse implanted with mouse Lewis lung carcinoma cell line overexpressing PD-L1 assessed as effect on spleen viscera index at 20 mg/kg,ip administrated once every three days for 19 days; assay type: organism-based; details: in vivo, 456 h, time 19 day
[2] = Toxicity in C57 mouse implanted with mouse Lewis lung carcinoma cell line overexpressing PD-L1 assessed as effect on liver viscera index at 20 mg/kg,ip administrated once every three days for 19 days; assay type: organism-based; details: in vivo, 456 h, time 19 day
[3] = Toxicity in C57 mouse implanted with mouse Lewis lung carcinoma cell line overexpressing PD-L1 assessed as effect on heart viscera index at 20 mg/kg,ip administrated once every three days for 19 days; assay type: organism-based; details: in vivo, 456 h, time 19 day
[4] = Toxicity in C57 mouse implanted with mouse Lewis lung carcinoma cell line overexpressing PD-L1 assessed as effect on lung viscera index at 20 mg/kg,ip administrated once every three days for 19 days; assay type: organism-based; details: in vivo, 456 h, time 19 day
[5] = Metabolic stability in rat liver microsomes assessed as intrinsic clearance; assay type: ADME, Microsome; details: read-out: CLH
[6] = Metabolic stability in human liver microsomes assessed as intrinsic clearance; assay type: ADME, Microsome; details: read-out: CLH
[7] = molecular target: Programmed cell death protein 1/Programmed cell death 1 ligand 1 (Homo sapiens, UniProt Q15116+Q9NZQ7); test: Inhibition of PD-1/PD-L1 (unknown origin) protein-protein interaction incubated for 105 mins by HTRF assay; assay type: protein-complex assay
[8] = Metabolic stability in human liver microsomes assessed as half life; assay type: ADME, Microsome
[9] = Metabolic stability in rat liver microsomes assessed as half life; assay type: ADME, Microsome
T-cell [10] = test: Immunomodulatory activity in concanavalin A stimulated BALB/c mouse T-lymphocyte co-cultured with mouse CT26 cells assessed as T cell proliferation at 20 nM incubated for 48 hrs by flow cytometry (reference value: 64.08 +/- 0.91%); assay type: functional
T-cell [11] = test: Immunomodulatory activity in concanavalin A stimulated BALB/c mouse T-lymphocyte co-cultured with mouse CT26 cells overexpressing PD-L1 assessed as T cell proliferation at 20 nM incubated for 48 hrs by flow cytometry (reference value: 58.47 +/- 2.07%); assay type: functional
T-cell [12] = test: Immunomodulatory activity in concanavalin A stimulated BALB/c mouse T-lymphocyte co-cultured with mouse CT26 cells assessed as increase in T cell proliferation at 5 to 80 nM incubated for 48 hrs by flow cytometry; assay type: functional, cell-based; details: dose 5-80 nM
T-cell [13] = test: Immunomodulatory activity in concanavalin A stimulated BALB/c mouse T-lymphocyte co-cultured with mouse CT26 cells overexpressing PD-L1 assessed as increase in T cell proliferation at 5 to 80 nM incubated for 48 hrs by flow cytometry; assay type: functional, cell-based; details: dose 5-80 nM
T-cell [14] = test: Immunomodulatory activity in concanavalin A stimulated BALB/c mouse T-lymphocyte co-cultured with mouse CT26 cells overexpressing PD-L1 assessed as increase in proportion of CD3 positive CD8 positive T cells at 20 nM incubated for 48 hrs by flow cytometry (reference value: 15.01%); assay type: functional
T-cell [15] = test: Immunomodulatory activity in concanavalin A stimulated BALB/c mouse T-lymphocyte co-cultured with mouse CT26 cells overexpressing PD-L1 assessed as increase in proportion of CD3 positive CD8 positive T cells at 80 nM incubated for 48 hrs by flow cytometry (reference value: 14.38%); assay type: functional
T-cell [16] = test: Immunomodulatory activity in concanavalin A stimulated BALB/c mouse T-lymphocyte co-cultured with mouse CT26 cells overexpressing PD-L1 assessed as increase in proportion of CD3 positive CD69 positive T cells at 20 nM incubated for 48 hrs by flow cytometry (reference value: 39.97%); assay type: functional
T-cell [17] = test: Immunomodulatory activity in concanavalin A stimulated BALB/c mouse T-lymphocyte co-cultured with mouse CT26 cells overexpressing PD-L1 assessed as increase in proportion of CD3 positive CD69 positive T cells at 80 nM incubated for 48 hrs by flow cytometry (reference value: 41.22%); assay type: functional
CT26 [18] = test: Cytotoxicity against mouse CT26 cells assessed as cell growth inhibition at 0.25 to 4096 nM incubated for 48 hrs by MTT assay; assay type: functional, cell-based; details: dose 0.25-4096 nM
CT26 [19] = test: Cytotoxicity against mouse CT26 cells overexpressing PD-L1 assessed as cell growth inhibition at 0.25 to 4096 nM incubated for 48 hrs by MTT assay; assay type: functional, cell-based; details: dose 0.25-4096 nM
Lewis lung carcinoma [20] = test: Cytotoxicity against mouse Lewis lung carcinoma cell line assessed as cell growth inhibition at 0.25 to 4096 nM incubated for 48 hrs by MTT assay; assay type: functional, cell-based; details: dose 0.25-4096 nM
Lewis lung carcinoma [21] = test: Cytotoxicity against mouse Lewis lung carcinoma cell line overexpressing PD-L1 assessed as cell growth inhibition at 0.25 to 4096 nM incubated for 48 hrs by MTT assay; assay type: functional, cell-based; details: dose 0.25-4096 nM
Lewis lung carcinoma [22] = test: Antitumor immunity against mouse Lewis lung carcinoma cell line overexpressing PD-L1 co-cultured with concanavalin A stimulated BALB/c mouse spleen T cell assessed as increase in T cell infiltration into tumor matrix at 20 nM incubated for 48 to 72 hrs by fluorescence microscopy; assay type: functional, cell-based; details: time 48-72 hrs
Lewis lung carcinoma [23] = test: Antitumor immunity against mouse Lewis lung carcinoma cell line overexpressing PD-L1 co-cultured with concanavalin A stimulated BALB/c mouse spleen T cell assessed as increase in T cell infiltration into tumor matrix at 80 nM incubated for 48 to 72 hrs by fluorescence microscopy; assay type: functional, cell-based; details: time 48-72 hrs
[24] = Antitumor activity against mouse Lewis lung carcinoma cell line overexpressing PD-L1 implanted in C57 mouse model assessed as tumor growth inhibition at 20 mg/kg,ip administrated once every three days for 19 days; assay type: functional; details: 456 h, time 19 day, read-out: TGI
[25] = Toxicity in C57 mouse implanted with mouse Lewis lung carcinoma cell line overexpressing PD-L1 assessed as reduction in body weight at 20 mg/kg,ip administrated once every three days for 19 days; assay type: organism-based; details: in vivo, 456 h, time 19 day
[26] = Toxicity in C57 mouse implanted with mouse Lewis lung carcinoma cell line overexpressing PD-L1 assessed as effect on kidney viscera index at 20 mg/kg,ip administrated once every three days for 19 days; assay type: organism-based; details: in vivo, 456 h, time 19 day
[27] = Antitumor activity against mouse Lewis lung carcinoma cell line overexpressing PD-L1 implanted in C57 mouse model assessed as increase in infiltration of CD3 positive CD8 positive T cells in tumor by measuring viable cells at 20 mg/kg,ip administrated once every three days for 19 days by flow cytometry analysis (reference value: 84.51%); assay type: functional; details: time 19 day
[28] = Antitumor activity against mouse Lewis lung carcinoma cell line overexpressing PD-L1 implanted in C57 mouse model assessed as increase in infiltration of CD3 positive CD8 positive T cells in tumor by measuring early apoptotic cells at 20 mg/kg,ip administrated once every three days for 19 days by flow cytometry analysis (reference value: 1.32%); assay type: functional; details: time 19 day
[29] = Antitumor activity against mouse Lewis lung carcinoma cell line overexpressing PD-L1 implanted in C57 mouse model assessed as increase in infiltration of CD3 positive CD8 positive T cells in tumor by measuring late apoptotic cells at 20 mg/kg,ip administrated once every three days for 19 days by flow cytometry analysis (reference value: 9%); assay type: functional; details: time 19 day
[30] = Antitumor activity against mouse Lewis lung carcinoma cell line overexpressing PD-L1 implanted in C57 mouse model assessed as increase in infiltration of CD3 positive CD8 positive T cells in tumor by measuring necrotic cells at 20 mg/kg,ip administrated once every three days for 19 days by flow cytometry analysis (reference value: 5.17%); assay type: functional; details: time 19 day
[31] = Antitumor activity against mouse Lewis lung carcinoma cell line overexpressing PD-L1 implanted in C57 mouse model assessed as increase in infiltration of CD3 positive CD4 positive T cells in tumor by measuring viable cells at 20 mg/kg,ip administrated once every three days for 19 days by flow cytometry analysis (reference value: 83.97%); assay type: functional; details: time 19 day
[32] = Antitumor activity against mouse Lewis lung carcinoma cell line overexpressing PD-L1 implanted in C57 mouse model assessed as increase in infiltration of CD3 positive CD4 positive T cells in tumor by measuring early apoptotic cells at 20 mg/kg,ip administrated once every three days for 19 days by flow cytometry analysis (reference value: 2.24%); assay type: functional; details: time 19 day
[33] = Antitumor activity against mouse Lewis lung carcinoma cell line overexpressing PD-L1 implanted in C57 mouse model assessed as increase in infiltration of CD3 positive CD4 positive T cells in tumor by measuring late apoptotic cells at 20 mg/kg,ip administrated once every three days for 19 days by flow cytometry analysis (reference value: 12.07%); assay type: functional; details: time 19 day
[34] = Antitumor activity against mouse Lewis lung carcinoma cell line overexpressing PD-L1 implanted in C57 mouse model assessed as increase in infiltration of CD3 positive CD4 positive T cells in tumor by measuring necrotic cells at 20 mg/kg,ip administrated once every three days for 19 days by flow cytometry analysis (reference value: 1.72%); assay type: functional; details: time 19 day
[35] = Antitumor activity against mouse Lewis lung carcinoma cell line overexpressing PD-L1 implanted in C57 mouse model assessed as increase in CD8 positive GzmB positive T cells in tumor at 20 mg/kg,ip administrated once every three days for 19 days by flow cytometry analysis (reference value: 9.11%); assay type: functional; details: time 19 day
[36] = Antitumor activity against mouse Lewis lung carcinoma cell line overexpressing PD-L1 implanted in C57 mouse model assessed as increase in CD8 positive IFN-gamma positive T cells in tumor at 20 mg/kg,ip administrated once every three days for 19 days by flow cytometry analysis (Rvb =20.66%); assay type: functional; details: time 19 day

Chain of Programmed cell death protein 1/Programmed cell death 1 ligand 1 (Q15116 whole entry): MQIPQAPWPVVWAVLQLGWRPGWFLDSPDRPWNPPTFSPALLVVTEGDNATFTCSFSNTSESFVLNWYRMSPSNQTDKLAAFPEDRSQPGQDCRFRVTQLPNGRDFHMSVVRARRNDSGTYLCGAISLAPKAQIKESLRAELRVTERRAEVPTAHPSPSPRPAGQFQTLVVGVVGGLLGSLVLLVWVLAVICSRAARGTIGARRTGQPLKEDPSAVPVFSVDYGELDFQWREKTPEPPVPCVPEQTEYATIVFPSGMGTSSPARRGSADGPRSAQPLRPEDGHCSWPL
Chain of Programmed cell death protein 1/Programmed cell death 1 ligand 1 (Q9NZQ7 whole entry): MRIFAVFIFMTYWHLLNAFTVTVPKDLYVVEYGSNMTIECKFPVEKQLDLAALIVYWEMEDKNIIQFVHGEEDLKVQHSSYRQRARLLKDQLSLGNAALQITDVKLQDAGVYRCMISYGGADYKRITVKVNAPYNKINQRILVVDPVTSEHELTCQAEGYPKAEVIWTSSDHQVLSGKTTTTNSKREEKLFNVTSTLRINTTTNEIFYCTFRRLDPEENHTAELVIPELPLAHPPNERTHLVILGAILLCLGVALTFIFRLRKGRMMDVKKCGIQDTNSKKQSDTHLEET

SMILES: CC(C)(CO)NCc1cnc2c(N3CCc4c(-c5ccccc5)cccc43)ncnc2c1
- Activity [1]: Non-Toxic
- Activity [2]: Non-Toxic
- Activity [3]: Non-Toxic
- Activity [4]: Toxic
- microsomal CLint [5]: 8.8 µL/min/mg
- microsomal CLint [6]: 6.9 µL/min/mg
- IC50 [7]: 6.3 nM
- half-life [8]: 3.34 h
- half-life [9]: 2.64 h
- Activity (T-cell [10]): 54.61%
- Activity (T-cell [11]): 62.69%
- Activity (T-cell [12]): Active
- Activity (T-cell [13]): Active
- Activity (T-cell [14]): 23.79%
- Activity (T-cell [15]): 26.32%
- Activity (T-cell [16]): 56.41%
- Activity (T-cell [17]): 61.21%
- Activity (CT26 [18]): inactive
- Activity (CT26 [19]): inactive
- Activity (Lewis lung carcinoma [20]): inactive
- Activity (Lewis lung carcinoma [21]): inactive
- Activity (Lewis lung carcinoma [22]): Active
- Activity (Lewis lung carcinoma [23]): Active
- inhibition in vivo at 20 mg/kg [24]: 61.9%
- Activity [25]: Toxic
- Activity [26]: Non-Toxic
- Activity [27]: 75.06%
- Activity [28]: 4.77%
- Activity [29]: 17.77%
- Activity [30]: 2.4%
- Activity [31]: 73.8%
- Activity [32]: 3.13%
- Activity [33]: 22.29%
- Activity [34]: 0.78%
- Activity [35]: 21.13%
- Activity [36]: 31.1%
